# Measured values: US8940798B2, “Compounds useful for treating and/or preventing disease-associated bone loss” (Centre National de al Recherche Scientifique (CNRS), priority 2011, dated 2015)
# How the values were obtained:
# DBA1 mice = test: Arthritis model induced by injecting bovine collagen into DBA1 mice; format: in vivo, mouse
# Protocol: In inflammatory arthritis pathologies such as rheumatoid polyarthritis, the inflammatory reaction in the synovial tissue causes differentiation of osteoclasts that destroy the bone in the area of the joints (see FIG. 8). The arthritis model induced by injecting bovine collagen into DBA1 mice is classically used as a model for this pathology.
# Protocol experiment 1: 2 naive DBA1 mice, 6 control mice injected with PBS and 8 test mice receiving the compound C21, 5 mg/d/kg, 5 days per week, as a retro-orbital sinus injection. The mice are distributed in 2 cages, with 1 naive mouse, 3 control mice and 4 test mice per cage. The animals, with the exception of the naive mice, receive an injection of […] of bovine collagen at day 0 and at day 20.
# Protocol experiment 2: 4 naive DBA1 mice, 12 control mice injected with PBS and 12 test mice receiving the compound C21, 15 mg/d/kg, 5 days per week, as an intraperitoneal injection. The mice are distributed in 2 cages, with 2 naive mice, 6 control mice and 6 test mice per cage. The animals, with the exception of the naive mice, receive an injection of 100 μg of bovine collagen at day 0 and at day 20.
# The arthritic score of each mouse is established twice per week between days 20 and D52, in order to measure swelling and deformation of the joints of the four limbs, an indication of the inflammatory response. The mice are sacrificed at D53, the legs are dissected and the structure of the bone surface of the metatarsi is imaged by micro-tomography in order to show the bone degradation at the area of the joints. The bone volume with respect to the total volume of the joint (BV/TV) decreases with the formation of resorption cavities. The measurements were performed on the joint of the central finger of the right metatarsus in experiment 1 and from the left and the right metatarsus in experiment 2. Anti-collagen IgG levels were measured in the serum of the mice in experiment 2 at day 52.
# C57B1/6 mice = test: Ovariectomy-induced bone loss model in C57B1/6 mice; format: in vivo, mouse; conditions: 5 days per week for 28 days
# Description: After menopause, a decrease in bone density due to an increase in bone resorption, leading to osteoporosis, is observed. The decrease in estrogen secretion causes i) an increase in the osteoclast level due to the decrease in secretion of OPG, a RANKL inhibitor, by the osteoblasts and ii) an increase in the lifetime of the osteoclasts due to a decrease in the production of FasL, a promoter of apoptosis, by these cells. The ovariectomy model in the mouse is classically used as a model for this physiological disturbance (see FIG. 15).
# Protocol experiment 1: 8 C57B1/6 mice underwent ovariectomy (OVX) and 4 mice were operated on without ablation of the ovaries (SHAM). After this operation, 4 OVX mice received the C21 compound (test group), 5 mg/d/kg, 5 days per week for 28 days, as a retro-orbital sinus injection, and the other 4 OVX mice (control group) and the SHAM group received PBS.
# Protocol experiment 2: 16 C57B1/6 mice underwent ovariectomy (OVX) and 15 mice were operated on without ablation of the ovaries (SHAM). After this operation, 8 OVX mice received the C21 compound (test group), 15 mg/d/kg solubilized in 100 μl of 5% EtOH and 4% solutol, 5 days per week for 28 days, as an intraperitoneal injection, and the other 8 OVX mice (control group) and the SHAM group received 100 μl of 5% ethanol/4% solutol vehicle solution. […]
# GEF TrioN = target: T1, GEF TrioN (Homo sapiens, UniProt O75962); test: Active (GTP-bound) Rac1 pull-down in 293T cells expressing GFP-fused TrioN; format: cell-based; conditions: HEK293T cells, treated for 1 hour, 1% DMSO, western blot
# T1 construct: expressed in transfected cells; host or cells: 293T cells
# Description: FIGS. 5A-5H: Inhibition of bone resorption by an inhibitor of Rac1 activation by Dock5. (FIG. 5A) Principle of the yeast exchange assay used to identify inhibitors of Dock5 exchange activity. Wild type Rac1 is fused to LexA DNA binding domain (LexA) and its effector Kinectin (Kin) to GAL4 activation domain (GAD). Expression of Dock5-DHR2 activates Rac1, which binds to kinectin, leading to the expression of his3 and then yeast […] for histidine. Inhibitors of Dock5-DHR2 revert Rac1 activation. (FIG. 5B) Growth curves of yeasts expressing Rac1 and Kinectin with (open triangles) and without (dots) Dock5-DHR2, in medium complemented (plain lines) or not (dotted lines) with histidine. (FIG. 5C) Structure of N-(3,5-dichlorophenyl)benzensulfonamide (C21). […] (FIG. 5F) Number of OCs (OC) after a 24-hour incubation with the indicated concentrations of C21, expressed as a % of DMSO control (0 μM C21). […] To activate Rac1, OCs at day 4 of differentiation were starved overnight in the presence of 2% serum, stimulated with 100 ng/ml M-CSF or lifted and replated onto vitronectin-coated plates for 30 minutes prior to lysis, and active Rac1 levels were measured G-LISA kit according to manufacturer's instructions (Cytoskeleton).
smiles,measurement,setting,value
"O=S(=O)(Nc1cc(Cl)cc(Cl)c1)c1ccccc1 [C21, N-(3,5-dichlorophenyl)benzenesulfonamide]",Correlation between the arthritic score and BV/TV,"DBA1 mice; experiment 1, 5 mg/d/kg",no correlation
same,Mean arthritic score on D52,"DBA1 mice; experiment 1, 5 mg/d/kg, 5 days per week, retro-orbital sinus injection",3.78±1.23
same,Bone mass regardless of arthritic score,"DBA1 mice; experiment 1, 5 mg/d/kg, BV/TV relative to arthritic score",maintenance of their bone mass
same,Bone mass (BV/TV) by micro-tomography by comparison with the naive mice,"DBA1 mice; experiment 1, 5 mg/d/kg, metatarsus joint, D53",did not have any BV/TV modification
same,Number of mice of the 8 showing moderate bone degradation,"DBA1 mice; experiment 1, 5 mg/d/kg, three-dimensional reconstruction of first joint of metatarsus",1
same,Correlation between the BV/TV and the arthritic score,"DBA1 mice; experiment 2, 15 mg/d/kg intraperitoneal",no correlation
same,Levels of anti-collagen IgGs compared with PBS mice,"DBA1 mice; experiment 2, 15 mg/d/kg intraperitoneal, serum at day 52",non-significantly different
same,"Bone mass (BV/TV, right distal femur, micro-tomography) of mice having undergone ovariectomy","C57B1/6 mice; experiment 1, 5 mg/d/kg, retro-orbital sinus injection",not reduced
same,Bone mass of OVX animals compared with SHAM animals,"C57B1/6 mice; experiment 2, 15 mg/d/kg, intraperitoneal injection",not significantly different
same,Rac1 activation by the GEF TrioN,GEF TrioN,no effect
